Source: patent publication US20110301079A1, “NEUROMEDIN U RECEPTOR AGONISTS AND USES THEREOF” (Instituto di Ricerche di Biologia Molecolare P. Angeletti …, priority 2007, published 2011)
pEC50: −log10 of the molar value.

Target: T1, mouse NMUR1-ATG (Mus musculus, UniProt O55040)
T1 construct: expressed in transfected cells; host or cells: FLP-In CHO cells and HEK-293 FLP-In cells (pcDNA5)
T1 sequence (O55040 1-428): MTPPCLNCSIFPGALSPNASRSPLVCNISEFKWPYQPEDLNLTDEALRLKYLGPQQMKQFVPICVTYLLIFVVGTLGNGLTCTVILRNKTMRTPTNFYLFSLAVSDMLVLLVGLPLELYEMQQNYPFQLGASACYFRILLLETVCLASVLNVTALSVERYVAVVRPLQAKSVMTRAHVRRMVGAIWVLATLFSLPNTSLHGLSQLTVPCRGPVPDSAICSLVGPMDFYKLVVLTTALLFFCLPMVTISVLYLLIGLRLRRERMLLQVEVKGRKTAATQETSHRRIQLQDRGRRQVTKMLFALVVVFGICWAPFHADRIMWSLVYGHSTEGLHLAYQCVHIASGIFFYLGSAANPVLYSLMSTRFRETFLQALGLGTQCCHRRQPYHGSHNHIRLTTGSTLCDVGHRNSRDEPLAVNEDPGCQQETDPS
Assay: FLIPR calcium mobilization assay, mouse NMUR1-ATG cell line
Assay type: cell-based
Excerpt: Human, mouse or rat cDNAs encoding NMUR1 or NMUR2 (as described in Howard et al. Nature 406: 70-74 (2000) were subcloned in pcDNA5 (Invitrogen) and transfected into FLP-In CHO cells and HEK-293 FLP-In cells purchased from Invitrogen (Carlsbad, Calif.) using lipofectamine (Invitrogen). The Flp-In system allows integration and expression of a particular gene of interest at a specific genomic location utilizing the Flp recombinase from yeast. The transfected cells were selected by growth in medium containing 200 μg/mL hygromycin (Invitrogen). Populations were frozen at early passage numbers, and these stocks were used for further studies. Stable clones that expressed the mRNAs were identified functionally by FLIPR as well as by RT-PCR. […] Two different rodent NMUR1 cell lines were thus generated: one with the codon as predicted from the genomic databases and another cell line with an engineered methionine (ATG) as the start codon. The dog NMU receptors were also cloned from intestine RNA (NMUR1) and brain (NMUR2) and stable cell lines were generated as used for the human and rodent cell lines. […] To ensure high levels of expression in a heterologous system, a dog NMUR1 cell line was generated that contains an ATG as the start codon. Additionally, stable cell lines expressing the human receptors were generated in HEK-293/aeq 17 cells which stably express the aequorin gene under the CMV promoter. The human NMUR2 cDNA was cloned into pcDNA3.1 and human NMUR1 was subcloned into pIRES-puro (Clontech, Mountain View, Calif.), after transfection cells were selected in media containing G418 and either hygromycin (NMUR2) or puromycin (NMUR1).
The NMU receptors signal primarily through Gαq/11 proteins; therefore calcium mobilization assays can be utilized for functional activity.
Stable cell lines expressing human and or rodent NMUR1 or human NMUR2 receptors are plated at a density of 12,000 cells per well overnight on poly-lysine coated 384-well black-walled plates. The following day, the media is removed from the plates and the cells were subsequently loaded with Fluo-3 (Molecular Probes), a calcium sensitive dye, diluted in FLIPR buffer (1× Hank's buffered saline containing 20 mM HEPES, 0.1% BSA, 2.5 mM probenecid (Sigma) and 1.6 mM TR40). All reagents are from Invitrogen unless otherwise noted. Peptide stocks are resuspended in DMSO at a stock concentration of 2 mM and diluted in FLIPR buffer on the day of the experiment to a 4 μM working stock solution.
After a 90 minute incubation at room-temperature, cell plates are loaded onto a FLIPR (Molecular Devices) to monitor cellular fluorescence (excitation=488 nm; emission=540 nm) before and after compound/peptide addition. Eight to twelve point dose responses are tested on NMUR-expressing cell lines using FLIPR with 1 μM peptide as the highest dose. The response after peptide addition is taken as the maximum fluorescence units minus the fluorescence immediately prior to stimulation for each well. EC50 values are calculated using GraphPad Prism (San Diego, Calif.) software.
Percent activity refers to the maximum response at 1 μM compared to the human NMU-25 response at the same concentration.

- pEC50 (FLIPR): 8.15
- % Activity (maximum response at 1 μM compared to the human NMU-25 response at the same concentration): 102%
Substance: H-ILQRGSGTAAVDFTKKDHTATWGRPFFLFRPRN-NH2 [NMS, reference compound]
